Source: the SangsterLogP compilation

test: from Langlois, M.; Dubost, J.; Audry, E.; Dallet, P.; Colleter, J. (1989). Simultaneous determination of physicochemical constants usable in QSAR in a series of alpha-adrenergic amines. Analusis : chimie …

Row | Compound | logP
1 | Clc1cccc(Cl)c1C1NCCc2c1[nH]c1ccccc21 (centres undefined) | 3.34
2 | Fc1ccccc1C1NCCc2c1[nH]c1ccccc21 (centres undefined) | 3.16
3 | c1ccc(C(CC2NCCc3c2[nH]c2ccccc32)c2ccccc2)cc1 (centres undefined) | 3.47
4 | O=[N+]([O-])c1cccc(C2NCCc3c2[nH]c2ccccc32)c1 (centres undefined) | 3.04
5 | Clc1ccc(C2NCCc3c2[nH]c2ccccc32)c(Cl)c1 (centres undefined) | 3.58
6 | O=[N+]([O-])c1ccc(Cl)c(C2NCCc3c2[nH]c2ccccc32)c1 (centres undefined) | 3.33

Next, values leading:

Row | logP | Compound
7 | 3.69 | c1ccc2c3c([nH]c2c1)C(c1ccc2c(c1)OCO2)NCC3 (centres undefined)
8 | 3.47 | Clc1cccc(C2NCCc3c2[nH]c2ccccc32)c1 (centres undefined)
9 | 3.38 | Clc1ccc(C2NCCc3c2[nH]c2ccccc32)cc1Cl (centres undefined)
